{
  "source": "ChEMBL document CHEMBL6087405",
  "about": "“Discovery and optimization of anthraquinone derivatives containing substituted bisbenzyloxy groups as a novel scaffold damaged endoplasmic reticulum and against hepatocellular carcinoma cells” (Bioorg Med Chem, 2024)",
  "key": {"[1]": {"system": "Huh-7", "test": "Induction of ER damage in human Huh-7 cells assessed as decrease in protein-disulfide bond content at 2 to 4 uM incubated for 48 hrs by absorbance based analysis", "assay_type": "functional, cell-based", "details": "dose 2-4 µM"}, "[2]": {"system": "Huh-7", "test": "Induction of apoptosis in human Huh-7 cells assessed as early apoptotic cells at 4 uM measured after 48 hrs by Annexin V-PE staining based flow cytometry analysis (reference value: 0.88%)", "assay_type": "functional"}, "[3]": {"system": "Huh-7", "test": "Upregulation of BAK protein level in human Huh-7 cells at 2 to 4 uM by Western blot analysis", "assay_type": "functional, cell-based", "details": "dose 2-4 µM"}, "[4]": {"system": "Huh-7", "test": "Induction of ER stress in human Huh-7 cells assessed as increase in ATF6 protein level at 4 uM incubated for 48 hrs in presence of 4pba by Western blot analysis", "assay_type": "functional, cell-based"}, "[5]": {"system": "Huh-7", "test": "Induction of apoptosis in human Huh-7 cells assessed as viable cells at 8 uM measured after 48 hrs in presence of Z-VAD by Annexin V-PE staining based flow cytometry analysis (reference value: 93.69%)", "assay_type": "functional", "details": "read-out: Activity"}, "[6]": {"system": "Huh-7", "test": "Induction of ER stress in human Huh-7 cells assessed as increase in PERK protein level at 4 uM incubated for 48 hrs in presence of 4pba by Western blot analysis", "assay_type": "functional, cell-based"}, "[7]": {"system": "Huh-7", "test": "Induction of apoptosis in human Huh-7 cells assessed as early apoptotic cells at 8 uM measured after 48 hrs by Annexin V-PE staining based flow cytometry analysis (reference value: 0.88%)", "assay_type": "functional"}, "[8]": {"system": "Huh-7", "test": "Induction of mitochondrial ROS release in human Huh-7 cells at 2 uM measured after 24 hrs in presence of […] by fluorescent microscopic analysis", "assay_type": "functional, cell-based"}, "[9]": {"system": "Huh-7", "test": "Induction of ER damage in human Huh-7 cells assessed as decrease in glycoprotein content at 2 to 4 uM incubated for 48 hrs by ELISA method", "assay_type": "functional, cell-based", "details": "dose 2-4 µM"}, "[10]": {"system": "Huh-7", "test": "Induction of ER stress in human Huh-7 cells assessed as increase in CHOP protein level at 2 to 4 uM incubated for 48 hrs by Western blot analysis", "assay_type": "functional, cell-based", "details": "dose 2-4 µM"}, "[11]": {"system": "Huh-7", "test": "Induction of apoptosis in human Huh-7 cells assessed as late apoptotic cells at 8 uM measured after 48 hrs by Annexin V-PE staining based flow cytometry analysis (reference value: 2.06%)", "assay_type": "functional"}, "[12]": {"system": "Huh-7", "test": "Induction of ER stress in human Huh-7 cells assessed as increase in PERK protein level at 2 to 4 uM incubated for 48 hrs by Western blot analysis", "assay_type": "functional, cell-based", "details": "dose 2-4 µM"}, "[13]": {"test": "Drug localization in endoplasmic reticulum of human Huh-7 cells assessed as colocalization at 100 uM measured within 1 hr by fluorescence based analysis", "assay_type": "ADME, subcellular", "details": "huh-7, 1 h"}, "[14]": {"system": "Huh-7", "test": "Induction of ER stress in human Huh-7 cells assessed as increase in IRE1 protein level at 2 to 4 uM incubated for 48 hrs by Western blot analysis", "assay_type": "functional, cell-based", "details": "dose 2-4 µM"}, "[15]": {"system": "Huh-7", "test": "Induction of ER stress in human Huh-7 cells assessed as increase in GRP78 protein level at 4 uM incubated for 48 hrs in presence of 4pba by Western blot analysis", "assay_type": "functional, cell-based"}, "[16]": {"system": "Huh-7", "test": "Induction of morphological change in human Huh-7 cells assessed as decrease in number of cells at 2 to 4 uM measured after 48 hrs by HE staining based microscopic analysis", "assay_type": "functional, cell-based", "details": "dose 2-4 µM"}, "[17]": {"system": "Huh-7", "test": "Upregulation of Caspase 12 expression level in human Huh-7 cells at 2 to 4 uM measured after 48 hrs by Western blot analysis", "assay_type": "functional, cell-based", "details": "dose 2-4 µM"}, "[18]": {"system": "Huh-7", "test": "Induction of morphological change in human Huh-7 cells assessed as membrane wrinkling at 2 to 4 uM measured after 48 hrs by HE staining based microscopic analysis", "assay_type": "functional, cell-based", "details": "dose 2-4 µM"}, "[19]": {"system": "Huh-7", "test": "Induction of ER stress in human Huh-7 cells assessed as increase in calcium ion content by measuring fluorescence intensity at 4 uM incubated for 24 hrs by fluorescence microscopy based analysis", "assay_type": "functional, cell-based"}, "[20]": {"system": "Huh-7", "test": "Induction of ER stress in human Huh-7 cells assessed as increase in GRP78 protein level at 2 to 4 uM incubated for 48 hrs by Western blot analysis", "assay_type": "functional, cell-based", "details": "dose 2-4 µM"}, "[21]": {"system": "MDA-MB-231", "test": "Antiproliferative activity against human MDA-MB-231 cells measured after 48 hrs by MTT assay", "assay_type": "functional, cell-based", "details": "MDA-MB-231, 48 h"}, "[22]": {"system": "Huh-7", "test": "Induction of apoptosis in human Huh-7 cells assessed as late apoptotic cells at 8 uM measured after 48 hrs in presence of Z-VAD by Annexin V-PE staining based flow cytometry analysis (reference value: 2.06%)", "assay_type": "functional"}, "[23]": {"system": "Huh-7", "test": "Induction of apoptosis in human Huh-7 cells assessed as early apoptotic cells at 8 uM measured after 48 hrs in presence of Z-VAD by Annexin V-PE staining based flow cytometry analysis (reference value: 0.88%)", "assay_type": "functional"}, "[24]": {"system": "Huh-7", "test": "Induction of apoptosis in human Huh-7 cells assessed as necrotic cells at 8 uM measured after 48 hrs in presence of Z-VAD by Annexin V-PE staining based flow cytometry analysis (reference value: 3.37%)", "assay_type": "functional"}, "[25]": {"system": "Huh-7", "test": "Induction of morphological change in human Huh-7 cells assessed as nuclear edge aggregation at 2 to 4 uM measured after 48 hrs by HE staining based microscopic analysis", "assay_type": "functional, cell-based", "details": "dose 2-4 µM"}, "[26]": {"system": "Huh-7", "test": "Upregulation of Cytochrome C level in human Huh-7 cells at 2 to 4 uM by Western blot analysis", "assay_type": "functional, cell-based", "details": "dose 2-4 µM"}, "[27]": {"system": "Huh-7", "test": "Induction of apoptosis in human Huh-7 cells assessed as necrotic cells at 2 uM measured after 48 hrs by Annexin V-PE staining based flow cytometry analysis (reference value: 3.37%)", "assay_type": "functional"}, "[28]": {"system": "Huh-7", "test": "Upregulation of Bax protein level in human Huh-7 cells at 2 to 4 uM by Western blot analysis", "assay_type": "functional, cell-based", "details": "dose 2-4 µM"}, "[29]": {"system": "Huh-7", "test": "Induction of ER stress in human Huh-7 cells assessed as increase in IRE1 protein level at 4 uM incubated for 48 hrs in presence of 4pba by Western blot analysis", "assay_type": "functional, cell-based"}, "[30]": {"system": "Huh-7", "test": "Induction of apoptosis in human Huh-7 cells assessed as necrotic cells at 4 uM measured after 48 hrs by Annexin V-PE staining based flow cytometry analysis (reference value: 3.37%)", "assay_type": "functional"}, "[31]": {"system": "Huh-7", "test": "Upregulation of CRT expression level in human Huh-7 cells at 2 to 4 uM measured after 48 hrs by Western blot analysis", "assay_type": "functional, cell-based", "details": "dose 2-4 µM"}, "[32]": {"system": "Huh-7", "test": "Upregulation of cleaved caspase-3 protein level in human Huh-7 cells at 2 to 4 uM by Western blot analysis", "assay_type": "functional, cell-based", "details": "dose 2-4 µM"}, "[33]": {"system": "A549", "test": "Antiproliferative activity against human A549 cells measured after 48 hrs by MTT assay", "assay_type": "functional, cell-based", "details": "A549, 48 h"}, "[34]": {"system": "Huh-7", "test": "Antiproliferative activity against human Huh-7 cells measured after 48 hrs by MTT assay", "assay_type": "functional, cell-based", "details": "Huh-7, 48 h"}, "[35]": {"system": "Huh-7", "test": "Induction of apoptosis in human Huh-7 cells assessed as necrotic cells at 8 uM measured after 48 hrs by Annexin V-PE staining based flow cytometry analysis (reference value: 3.37%)", "assay_type": "functional"}, "[36]": {"system": "Huh-7", "test": "Induction of apoptosis in human Huh-7 cells assessed as early apoptotic cells at 2 uM measured after 48 hrs by Annexin V-PE staining based flow cytometry analysis (reference value: 0.88%)", "assay_type": "functional"}, "[37]": {"system": "Huh-7", "test": "Induction of ER stress in human Huh-7 cells assessed as increase in CHOP protein level at 4 uM incubated for 48 hrs in presence of 4pba by Western blot analysis", "assay_type": "functional, cell-based"}, "[38]": {"system": "Huh-7", "test": "Induction of morphological change in human Huh-7 cells assessed as appearance of condensed cell nucleus at 2 to 4 uM measured after 48 hrs by HE staining based microscopic analysis", "assay_type": "functional", "details": "dose 2-4 µM"}},
  "note": "Active and inactive are the calls of the source. No cut-off for these calls is given here.",
  "data": [
    {"smiles": "COc1ccc(COc2cccc3c2C(=O)c2c(OCc4ccc(OC)cc4)cc(C(=O)NCCNCCO)cc2C3=O)cc1", "values": [
      {"measurement": "Activity", "setting": "[1]", "value": "Active"},
      {"measurement": "Activity", "setting": "[2]", "value": 43.64, "unit": "%"},
      {"measurement": "Activity", "setting": "[3]", "value": "Active"},
      {"measurement": "Activity", "setting": "[4]", "value": "inactive"},
      {"measurement": "viability at 8 µM", "setting": "[5]", "value": 68.5, "unit": "%"},
      {"measurement": "Activity", "setting": "[6]", "value": "inactive"},
      {"measurement": "Activity", "setting": "[7]", "value": 68.79, "unit": "%"},
      {"measurement": "Activity", "setting": "[8]", "value": "inactive"},
      {"measurement": "Activity", "setting": "[9]", "value": "Active"},
      {"measurement": "Activity", "setting": "[10]", "value": "Active"},
      {"measurement": "Activity", "setting": "[11]", "value": 6.32, "unit": "%"},
      {"measurement": "Activity", "setting": "[12]", "value": "Active"},
      {"measurement": "Drug uptake", "setting": "[13]", "value": "Active"},
      {"measurement": "Activity", "setting": "[14]", "value": "Active"},
      {"measurement": "Activity", "setting": "[15]", "value": "inactive"},
      {"measurement": "Activity", "setting": "[16]", "value": "Active"},
      {"measurement": "Activity", "setting": "[17]", "value": "Active"},
      {"measurement": "Activity", "setting": "[18]", "value": "Active"},
      {"measurement": "Activity", "setting": "[19]", "value": "Active"},
      {"measurement": "Activity", "setting": "[20]", "value": "Active"},
      {"measurement": "IC50", "setting": "[21]", "value": 600, "unit": "nM"},
      {"measurement": "Activity", "setting": "[22]", "value": 4.41, "unit": "%"},
      {"measurement": "Activity", "setting": "[23]", "value": 16.45, "unit": "%"},
      {"measurement": "Activity", "setting": "[24]", "value": 10.59, "unit": "%"},
      {"measurement": "Activity", "setting": "[25]", "value": "Active"},
      {"measurement": "Activity", "setting": "[26]", "value": "Active"},
      {"measurement": "Activity", "setting": "[27]", "value": 6.06, "unit": "%"},
      {"measurement": "Activity", "setting": "[28]", "value": "Active"},
      {"measurement": "Activity", "setting": "[29]", "value": "inactive"},
      {"measurement": "Activity", "setting": "[30]", "value": 8.55, "unit": "%"},
      {"measurement": "Activity", "setting": "[31]", "value": "Active"},
      {"measurement": "Activity", "setting": "[32]", "value": "Active"},
      {"measurement": "IC50", "setting": "[33]", "value": 2580, "unit": "nM"},
      {"measurement": "IC50", "setting": "[34]", "value": 1750, "unit": "nM"},
      {"measurement": "Activity", "setting": "[35]", "value": 1.2, "unit": "%"},
      {"measurement": "Activity", "setting": "[36]", "value": 65.4, "unit": "%"},
      {"measurement": "Activity", "setting": "[37]", "value": "inactive"},
      {"measurement": "Activity", "setting": "[38]", "value": "Active"}
    ]}
  ]
}
